Assay results taken from patent US7071180B2, “Certain arylaliphatic and heteroaryl-aliphatic piperazinyl pyrazines and their use in the treatment of serotonin-related diseases” (Biovitrum AB, priority 1999, dated 2006).
Counter-ions that a name gives are not always drawn.

| Structure (SMILES) | melting point |
| --- | --- |
| c1cncc(CCCOc2nccnc2N2CCNCC2)c1 (as salt: maleate) [Example 126, 2-(1-piperazinyl)-3-[3-(3-pyridinyl)propoxy]pyrazine] | 128 to 130 °C |
| Fc1cccc(OCCOc2nccnc2N2CCNCC2)c1F (as salt: fumarate) [Example 105, 2-[2-(2,3-Difluorophenoxy)ethoxy]-3-(1-piperazinyl)pyrazine] | 125 to 130 °C |
| c1cncc(OCCOc2nc3cscc3nc2N2CCNCC2)c1 (as salt: maleate) [Example 165, 2-[2-(3-Pyridinyloxy)ethoxy]3-(1-piperazinyl)thieno[3,4-b]pyrazine] | 152 to 156 °C |
| c1ccc2nc(N3CCNCC3)c(OCCOc3cncnc3)nc2c1 [Example 166, 2-[2-(5-Pyrimidinyloxy)ethoxy]-3-(1-piperazinyl)quinoxaline] | 115 to 117 °C |
| c1ccc(OCCOc2nc3ccccc3nc2N2CCNCC2)cc1 (as salt: hydrochloride) [Example 3, 2-(2-Phenoxyethoxy)-3-(1-piperazinyl)quinoxaline] | 123 to 126 °C |
| c1cc(OCCOc2nccnc2N2CCNCC2)c2ncoc2c1 (as salt: maleate) [Example 159, 2-(1,3-Benzoxazol-4-yloxy)ethyl 3-(1-piperazinyl)-2-pyrazinyl ether] | 191 to 193 °C |
| COc1ccc(F)cc1OCCOc1nccnc1N1CCNCC1 (as salt: fumarate) [Example 100, 2-[2-(5-Fluoro-2-methoxyphenoxy)ethoxy]-3-(1-piperazinyl)pyrazine] | 172 to 176 °C |
| c1ccc2c(c1)CCC(COc1nc3ccccc3nc1N1CCNCC1)O2 (stereo not shown) (as salt: salt) [Example 168, 2-(3,4-Dihydro-2H-chromen-2-ylmethoxy)-3-(1-piperazinyl)quinoxaline] | 202 to 204 °C |
| Fc1cc(F)c(F)c(OCCOc2nccnc2N2CCNCC2)c1 (as salt: fumarate) [Example 106, 2-[2-(2,3,5-Trifluorophenoxy)ethoxy]-3-(1-piperazinyl)pyrazine] | 158 to 159 °C |
| CSc1ncccc1OCCOc1nccnc1N1CCNC[C@H]1C (as salt: fumarate) [Example 198, (2R)-2-Methyl-1-[3-(2-{[2-(methylsulfanyl)-3-pyridinyl]oxy}ethoxy)-2-pyrazinyl]piperazine] | 179 °C |
| Cc1ccccc1OCCOc1nccnc1N1CCNCC1 (as salt: maleate) [Example 93, 2-(2-Methylphenoxy)ethyl 3-(1-piperazinyl)-2-pyrazinyl ether] | 151 to 152 °C |
| CCC1CNCCN1c1nccnc1OCCOc1cccnc1 (stereo not shown) (as salt: fumarate) [Example 178, 2-Ethyl-1-{3-[2-(3-pyridinyloxy)ethoxy]-2-pyrazinyl}piperazine] | 125 to 127 °C |
| c1coc(COc2nccnc2N2CCNCC2)c1 (as salt: maleate) [Example 2, 2-(2-Furylmethoxy)-3-(1-piperazinyl)pyrazine] | 118 to 120 °C |
| c1cnc2ccc(COc3nccnc3N3CCNCC3)cc2c1 (as salt: fumarate) [Example 213, 3-(1-Piperazinyl)-2-pyrazinyl 6-quinolinylmethyl ether] | 207 to 209 °C |
| c1ccc(OCCCOc2nccnc2N2CCNCC2)cc1 (as salt: hydrochloride) [Example 90, 3-(Phenoxy)propyl 3-(1-piperazinyl)-2-pyrazinyl ether] | 146 to 146.5 °C |
| Fc1cccc(F)c1OCCOc1nccnc1N1CCNCC1 [Example 83, 2-(2,6-Difluorophenoxy)ethyl 3-(1-piperazinyl)-2-pyrazinyl ether] | 101 to 102 °C |
| c1cnc2cc(OCCOc3nccnc3N3CCNCC3)ccc2c1 (as salt: maleate) [Example 137, 2-(7-Quinolinyloxy)ethyl 3-(1-piperazinyl)-2-pyrazinyl ether] | 156 to 158 °C |
| c1cncc(OCCOc2nccnc2N2CCNCC2)c1 (as salt: hydrochloride) [Example 150, 2-(3-Pyridyloxy)ethyl 3-(1-piperazinyl)-2-pyrazinyl ether] | 170 to 175 °C |

Further lines, results first:

| melting point | Structure (SMILES) |
| --- | --- |
| 101 to 103 °C | c1ccc(-c2ccccc2OCCOc2nccnc2N2CCNCC2)cc1 [Example 97, 2-[(1,1′Biphenyl)-2-yloxy]ethyl 3-(1-piperazinyl)-2-pyrazinyl ether] |
| 149 to 154 °C | c1cc2c(c(OCCOc3nccnc3N3CCNCC3)c1)OCC2 (as salt: maleate) [Example 186, 2-(2,3-Dihydrobenzofuran-7-yloxy)ethyl 3-(1-piperazinyl)-2-pyrazinyl ether] |
| 187 to 189 °C | Clc1cc2nc(OCCOc3cccnc3)c(N3CCNCC3)nc2cc1Cl (as salt: maleate) [Example 164, 2-[2-(3-Pyridinyloxy)ethoxy]-3-(1-piperazinyl)-6,7-dichloroquinoxaline] |
| 186 °C | CCOc1ncccc1OCCOc1nccnc1N1CCNCC1 (as salt: fumarate) [Example 199, 2-{2-[(2-Ethoxy-3-pyridinyl)oxy]ethoxy}-3-(1-piperazinyl)pyrazine] |
| 137 to 139 °C | c1cncc(OCCOc2nc3ccccc3nc2N2CCNCC2)c1 (as salt: maleate) [Example 162, 2-[2-(3-Pyridinyloxy)ethoxy]-3-(1-piperazinyl)quinoxaline] |
| 157 °C (dec.) | Cc1ccc(OCCOc2nccnc2N2CCNCC2)cn1 (as salt: hydrochloride) [Example 153, 2-(6-Methyl-3-pyridyloxy)ethyl 3-(1-piperazinyl)-2-pyrazinyl ether] |
| 131 to 133 °C | COc1cccc(OCCOc2nccnc2N2CCNCC2)c1 (as salt: toluenesulfonate) [Example 102, 2-[2-(3-Methoxyphenoxy)ethoxy]-3-(1-piperazinyl)pyrazine] |
| 78 to 81 °C | c1ccc(Nc2cccc(OCCOc3nccnc3N3CCNCC3)c2)cc1 (as salt: fumarate) [Example 107, N-Phenyl-3-(2-{[3-(1-piperazinyl)-2-pyrazinyl]oxy}ethoxy)aniline] |
| 154 °C | C[C@@H]1CNCCN1c1nccnc1OCCOc1cccnc1Br (as salt: fumarate) [Example 196, (2R)-1-(3-{2-[(2-Bromo-3-pyridinyl)oxy]ethoxy}-2-pyrazinyl)-2-methylpiperazine] |
| 130 to 132 °C | c1ccc(OCCOc2nccnc2N2CCNCC2)nc1 (as salt: maleate) [Example 152, 2-(2-Pyridyloxy)ethyl 3-(1-piperazinyl)-2-pyrazinyl ether] |
| 127 to 129 °C | OCCOc1ccc(OCCOc2nccnc2N2CCNCC2)cc1 (as salt: maleate) [Example 120, 2-[4-(2-{[3-(1-piperazinyl)-2-pyrazinyl]oxy}ethoxy)phenoxy]ethanol] |
| 133 to 138 °C | CC1CNCCN1c1nc2ccccc2nc1OCCOc1cccc2c1OCO2 (stereo not shown) (as salt: hydrochloride) [Example 182, 2-[2-(1,3-Benzodioxol-4-yloxy)ethoxy]-3-(2-methyl-1-piperazinyl)quinoxaline] |
| 171 to 173 °C | Fc1ccccc1OCCOc1nccnc1N1CCNCC1 (as salt: maleate) [Example 95, 2-(2-Fluorophenoxy)ethyl 3-(1-piperazinyl)-2-pyrazinyl ether] |
| 170 to 175 °C | c1ccc2c(c1)CCC(COc1nccnc1N1CCNCC1)O2 (stereo not shown) (as salt: hydrochloride) [Example 133, 2-(3,4-Dihydro-2H-chromen-2-ylmethoxy)-3-(1-piperazinyl)pyrazine] |
| 54 to 56.5 °C | CNc1ccc2cccc(OCCOc3nccnc3N3CCNCC3)c2n1 [Example 181, N-Methyl-8-(2-{[3-(1-piperazinyl)-2-pyrazinyl]oxy}ethoxy)-2-quinolinamine] |
| 75 to 85 °C | c1cnc(N2CCNCC2)c(OCCOc2ccsc2)n1 (as salt: hydrochloride) [Example 157, 2-(3-Thienyloxy)ethyl 3-(1-piperazinyl)-2-pyrazinyl ether] |
| 115 °C (dec.) | Cc1ccc(OCCOc2nccnc2N2CCNC[C@H]2C)cn1 (as salt: fumarate) [Example 176, (2R)-2-Methyl-1-(3-{2-[(6-methyl-3-pyridinyl)oxy]ethoxy}-2-pyrazinyl)piperazine] |
| 62 to 63 °C | Brc1cccc(OCCOc2nccnc2N2CCNCC2)c1 [Example 37, 2-(3-Bromophenoxy)ethyl 3-(1-piperazinyl)-2-pyrazinyl ether] |
| 119 °C (dec.) | CN1CC(COc2nccnc2N2CCNCC2)Oc2ccccc21 (stereo not shown) (as salt: hydrochloride) [Example 131, 2-(4-Methyl-3,4-dihydro-2H-1,4-benzoxazin-2-ylmethoxy)-3-(1-piperazinyl)-pyrazine] |
| 79 to 80 °C | FC(F)(F)c1ccccc1OCCOc1nccnc1N1CCNCC1 [Example 91, 2-(2-Trifluoromethylphenoxy)ethyl 3-(1-piperazinyl)-2-pyrazinyl ether] |
| 151.8 to 152.6 °C | COc1ccc(OCCOc2nccnc2N2CCNCC2)cn1 (as salt: maleate) [Example 204, 2-{2-[(6-Methoxy-3-pyridinyl)oxy]ethoxy}-3-(1-piperazinyl)pyrazine] |
| 141 to 143 °C | Fc1cccc(OCCOc2nccnc2N2CCNCC2)c1 (as salt: maleate) [Example 101, 2-[2-(3-Fluorophenoxy)ethoxy]-3-(1-piperazinyl)pyrazine] |
| 156 to 157 °C | CC1(C)Cc2cccc(OCCOc3nccnc3N3CCNCC3)c2O1 (as salt: maleate) [Example 158, 2-(2,3-Dihydro-2,2-dimethyl-7-benzofuranyloxy)ethyl 3-(1-piperazinyl)-2-pyrazinyl ether] |
| 160 °C (dec.) | c1ccc2c(c1)OC[C@@H](COc1nccnc1N1CCNCC1)O2 (as salt: hydrochloride) [Example 148, 2-[(2S)-2,3-Dihydro-1,4-benzodioxin-2-ylmethoxy]-3-(1-piperazinyl)pyrazine] |
| 160 to 167 °C | CN1CCN(c2nccnc2OCC2COc3ccccc3O2)CC1 (stereo not shown) (as salt: hydrochloride) [Example 169, 2,3-Dihydro-1,4-benzodioxin-2-ylmethyl 3-(4-methyl-1-piperazinyl)-2-pyrazinyl ether] |
